The values below come from ChEMBL document CHEMBL1141016, “Orally bioavailable prodrugs of a BCS class 2 molecule, an inhibitor of HIV-1 reverse transcriptase” (Bioorg Med Chem Lett, 2008).

Data set [1] can be described thus: Aqueous stability assessed as half life at pH 2. The class given is physicochemical.
The subject of data set [2] is Rattus norvegicus. The experiment in a line: Cmax in Hanover Wistar rat assessed as 5-(6-chloro-2-fluoro-3-((5-methyl-6-oxo-1,6-dihydropyridazin-3-yl)methyl)phenoxy)isophthalonitrile level at 50 mg/kg, po. Particulars: in vivo. It counts as ADME, organism-based. Also noted: dose 50 mg/kg, route oral.
The subject of data set [3] is Rattus norvegicus. The experiment in a line: AUC (0 to 24 hrs) in Hanover Wistar rat assessed as 5-(6-chloro-2-fluoro-3-((5-methyl-6-oxo-1,6-dihydropyridazin-3-yl)methyl)phenoxy)isophthalonitrile level at 50 mg/kg, po. Also noted: unit not given here. The following applies: in vivo.
For data set [4], the system named is Rattus norvegicus. Kind of data set: Tmax in Hanover Wistar rat assessed as 5-(6-chloro-2-fluoro-3-((5-methyl-6-oxo-1,6-dihydropyridazin-3-yl)methyl)phenoxy)isophthalonitrile level at 50 mg/kg, po. Also noted: dose 50 mg/kg, route oral. The class given is ADME, organism-based. The following applies: in vivo.
A short description of data set [5]: Aqueous stability assessed as half life at pH 6.5. The class given is physicochemical.
Data set [6] in a line: Cmax in Hanover Wistar rat at 50 mg/kg, po. The class given is ADME, organism-based. Also noted: dose 50 mg/kg, route oral. The following applies: in vivo.
The nature of data set [7]: Dissociation constant, pKa of the compound. It counts as physicochemical.
In data set [8] the test system is Rattus norvegicus. The experiment in a line: AUC (0 to 24 hrs) in Hanover Wistar rat at 50 mg/kg, po. Particulars: in vivo.
Data set [9] in a line: Tmax in Hanover Wistar rat at 5 mg/kg, po. The class given is ADME, organism-based. Also noted: dose 5 mg/kg, route oral. The following applies: in vivo.
Data set [10] is described as follows: Permeability across human Caco-2 cells. It counts as ADME, cell-based. Particulars: read-out: permeability.
Data set [11] in a line: Cmax in Hanover Wistar rat at 5 mg/kg, po. The following applies: in vivo. The class given is ADME, organism-based. Also noted: dose 5 mg/kg, route oral.
Data set [12] in a line: Aqueous solubility at pH 6.5. The class given is physicochemical.
Data set [13] has as its system Rattus norvegicus. Kind of data set: AUC (0 to 24 hrs) in Hanover Wistar rat at 5 mg/kg, po. Particulars: in vivo.
The nature of data set [14]: Tmax in Hanover Wistar rat at 50 mg/kg, po. The class given is ADME, organism-based. Particulars: in vivo. Also noted: dose 50 mg/kg, route oral.

≈ marks a conversion by molar mass, not a printed value.

For the compound `Cc1cc(Cc2ccc(Cl)c(Oc3cc(C#N)cc(C#N)c3)c2F)nn(COC(=O)OCCN2CCOCC2)c1=O.Cl`, the half-life is 301 h in data set [1] and 3.5 h in data set [5]. Besides, the Cmax in the data set on Rattus norvegicus [2] was found to be 5.6 µM. The AUC with Rattus norvegicus [3] was 89. For the same compound, the Tmax with Rattus norvegicus [4] came to 3.3 h.

Turning to `Cc1cc(Cc2ccc(Cl)c(Oc3cc(C#N)cc(C#N)c3)c2F)nn(COC(=O)CN)c1=O.Cl`, the half-life in [1] is 38 h; in data set [5], 1 h. Also, the Cmax in the data set with Rattus norvegicus [2] worked out at 6.3 µM. Moreover, the AUC in the data set on Rattus norvegicus [3] stood at 93. The Tmax in the data set with Rattus norvegicus [4] came to 4 h.

On to `Cc1cc(Cc2ccc(Cl)c(Oc3cc(C#N)cc(C#N)c3)c2F)nn(COC(=O)[C@@H](N)C(C)C)c1=O.Cl`, for which the half-life in data set [1] was 1420 h; in data set [5] it was 3.2 h. Further, the Cmax in the data set on Rattus norvegicus [2] was 9.1 µM. In addition, the AUC with Rattus norvegicus [3] is listed as 134. Besides, the Tmax in the data set with Rattus norvegicus [4] stood at 4 h.

Regarding `Cc1cc(Cc2ccc(Cl)c(Oc3cc(C#N)cc(C#N)c3)c2F)nn(COC(=O)c2cccnc2)c1=O.Cl`, the values for the half-life in data set [1] and in [5] were 10 h and 4.7 h, respectively. Besides, the Cmax in the data set with Rattus norvegicus [2] is 8.8 µM. In addition, the AUC with Rattus norvegicus [3] is 101. For the same compound, the Tmax in the data set on Rattus norvegicus [4] came to 4.7 h.

In the case of `Cc1cc(Cc2ccc(Cl)c(Oc3cc(C#N)cc(C#N)c3)c2F)nn(COC(=O)[C@@H]2CCCN2)c1=O.Cl`, the half-life in [1] is 17 h; in data set [5], < 0.3 h. Moreover, the Cmax with Rattus norvegicus [2] was determined as 7.3 µM. In addition, the AUC with Rattus norvegicus [3] is given as 108. Also, the Tmax in the data set on Rattus norvegicus [4] was 4.7 h.

For `Cc1cc(Cc2ccc(Cl)c(Oc3cc(C#N)cc(C#N)c3)c2F)nn(COC(=O)CCC(=O)O)c1=O`, the values for the half-life in [1] and in [5] were 462 h and 40 h, respectively. Besides, in the data set with Rattus norvegicus [2], the Cmax came to 13.2 µM. For the same compound, the AUC in the data set with Rattus norvegicus [3] is given as 142. In the data set on Rattus norvegicus [4], the time to peak (Tmax) was 2.7 h.

On to `Cc1cc(Cc2ccc(Cl)c(Oc3cc(C#N)cc(C#N)c3)c2F)nn(COP(=O)([O-])[O-])c1=O.[Na+].[Na+]`, for which the half-life in [1] and in [5] was > 24 h throughout. For the same compound, in the data set with Rattus norvegicus [2], the Cmax came out at 12.7 µM. Moreover, in the data set on Rattus norvegicus [3], the AUC was 178. Besides, the Tmax in the data set with Rattus norvegicus [4] came out at 8 h.

In the case of `Cc1cc(Cc2ccc(Cl)c(Oc3cc(C#N)cc(C#N)c3)c2F)nn(COC(=O)OCCN(C)C)c1=O.Cl`, the half-life in data set [1] was 289 h; in [5], 0.9 h. In addition, the Cmax with Rattus norvegicus [2] came to 7.3 µM. The AUC with Rattus norvegicus [3] is recorded as 108. Also, the Tmax in the data set on Rattus norvegicus [4] was found to be 2 h.

Consider `Cc1cc(Cc2ccc(Cl)c(Oc3cc(C#N)cc(C#N)c3)c2F)n[nH]c1=O`, for which the values for the Cmax in data set [6] and in [11] were 1.5 µM and 0.96 µM, respectively. In [7], this compound gave a pKa of 10.5. Further, the AUC is on record as 20.3 uM.hr/ml in the data set on Rattus norvegicus [8] and 6.8 uM.hr/ml in the data set with Rattus norvegicus [13]. Also, the Tmax in data set [9] is 3.7 h; in data set [14], 3.3 h. Besides, the Papp in data set [10] worked out at 19 ×10⁻⁶ cm/s. The compound further returned a solubility in data set [12] of 0.3 µg/mL (≈ 0.76 µM).

The term half-life denotes how long it takes for the measured level to halve. Usually Cmax stands for the peak of the concentration-time curve. As usually defined, the Tmax is the time at which the peak concentration occurs. As a reminder, the pKa is the negative logarithm of the acid dissociation constant. The term solubility denotes the dissolved amount per volume that the medium holds.
